Source: patent US8349827B2, “Substituted dipyrido-pyrimido-diazepine and benzo-pyrido-pyrimido compounds” (ArQule, Inc., priority 2009, dated 2013)

Experiments:
[1] = system: MDA-MB-231; experiment: MTS assay, MDA-MB-231 cells; format: cell-based; settings: Homo sapiens, 72 hours
Experimental: (§1) Cells were maintained at 37° C., 5% CO2 in DMEM media supplemented with 1% fetal bovine serum, penicillin/streptomycin and fungizone (Invitrogen). Cells were seeded into 96-well tissue culture plates at 3000 per well and cultured at 37° C. for 18 hours. Test compounds were dissolved and diluted to 300× in DMSO then diluted 1:40 in DMEM. Cells were incubated with test compounds for 72 hours followed by incubation with tetrazolium compound (3-(4,5-dimethylthiazol-2-yl)-5-(3-carboxymethoxyphenyl)-2-(4-sulfophenyl)-2H-tetrazolium, inner salt; MTS) and the electron coupling reagent, phenazine methosulfate (PMS) for 4 hours. […] The ability of compounds to inhibit cell growth in this assay is correlated with the reduction of dehydrogenase enzyme activity found in metabolically active cells. The measurement of the absorbance of the formazan was assessed using an ENVISION™ (Perkin Elmer) microplate reader at 492 nm. The calculated IC50 value is the concentration of the test compound that causes a 50% decrease in the absorbance.

[2] = system: PC-3; experiment: MTS assay, PC-3 cells; format: cell-based; settings: Homo sapiens, 72 hours
Experimental: as §1

[3] = system: PACA-2; experiment: MTS assay, PACA-2 cells; format: cell-based; settings: 72 hours
Experimental: as §1

[4] = system: KATO III; experiment: MTS assay, KATO III cells; format: cell-based; settings: Homo sapiens, 72 hours
Experimental: as §1

[5] = biological target: ABL T315I (Homo sapiens, UniProt P00519, T315I); experiment: ABL Kinase Activity Assay (Elisa), ABL T315I; format: biochemical; settings: ATP 100 μM, read-out: Abl(T315I) Enzymetic assay (Elisa) % inhibition
Experimental: (§2) ABL Kinase Activity Assay
(§3) The disclosed compounds were assayed for their ability to inhibit the activity of ABL kinase. Nunc Maxisorb plates were coated with streptavidin by overnight incubation with 100 μL per well of 1 μg/ml streptavidin in DPBS. Prior to the experiment, the plates were washed with TBST (3×200 μL) and blocked for at least 3 hours by adding 150 μL of 5% BSA/TBST. The plates were washed with TBST (3×200 μL/well) and left dry immediately before the capture step.
(§4) The disclosed test compounds and controls (Gleevec) were prepared using the following assay buffer@10× desired final concentration (50 mM Tris pH 7.0, 0.02 mg/ml BSA, 10 mM MgCl2, 0.1 mM Na3VO4, 1 mM EGTA, 0.01% NP-40, 1 mM DTT in 10% glycerol/water). In a reaction plate, 5 μl test article (or control) and 30 μl ABL or ABL T315I (0.089 nM final concentration, in the above buffer) were added rapidly. The plate was incubated for 20 minutes. To the reaction plate was added ATP (100 μM final concentration) and AblTide (128 nM final concentration) in a volume of 15 μl. The plate was incubated at room temperature for one hour.
(§5) From the reaction plate, 40 μl was transferred to the streptavidin coated plate. The capture plate was incubated at room temperature for 30 minutes, then washed 3× with TBST. To the capture plate was added 100 μL/well of cell signaling anti-phospho tyrosine at a dilution of 1:3000 in 2% BSA/TBST. The plate was incubated for two hours at room temperature then washed 3× with TBST. To the capture plate was added 100 μL/well of alkaline phosphatase tagged goat anti mouse antibody at a dilution of 1:4000 in 2% BSA/TBST. The plate was incubated for one hour at room temperature then washed 3× with TBST.
(§6) The fluorescent readout was initiated by the addition of 100 μl/well of Attophos reagent (6 mg/10 mL). The reading was done on the Perkin Elmer Envision system.

[6] = biological target: ABL (Homo sapiens, UniProt P00519); experiment: ABL Kinase Activity Assay (Elisa), ABL; format: biochemical; settings: ATP 100 μM, read-out: Abl Enzymetic assay (Elisa) % inhibition
Experimental: as §2, §3, §4, §5, §6

[7] = system: NCI-H1299; experiment: MTS assay, NCI-H1299 cells; format: cell-based; settings: Homo sapiens, 72 hours
Experimental: as §1

[8] = system: DLD-1; experiment: MTS assay, DLD-1 cells; format: cell-based; settings: Homo sapiens, 72 hours
Experimental: as §1

SMILES | inhibition at 10 µM [1] | inhibition at 10 µM [2] | inhibition at 10 µM [3] | inhibition at 10 µM [4] | inhibition at 10 µM [5] | inhibition at 10 µM [6] | inhibition at 10 µM [7] | inhibition at 10 µM [8]
CCCC(C)Nc1ncc2c(n1)-c1cccnc1Nc1cnccc1-2 (stereo not shown) [Example 5, N-(1-methylbutyl)-9H-dipyrido[2,3-b:4′,3′-f]pyrimido[4,5-d]azepin-2-amine] | < 50% | < 50% | < 50% | 50 to 79% | 80 to 100% | 80 to 100% | < 50% | < 50%
CCCCNc1ncc2c(n1)-c1cccnc1Nc1cnccc1-2 [Example 7, N-butyl-9H-dipyrido[2,3-b:4′,3′-f]pyrimido[4,5-d]azepin-2-amine] | 50 to 79% | < 50% | < 50% | 50 to 79% | 80 to 100% | 80 to 100% | < 50% | < 50%
Clc1ccccc1CNc1ncc2c(n1)-c1cccnc1Nc1cnccc1-2 [Example 8, N-(2-chlorobenzyl)-9H-dipyrido[2,3-b:4′,3′-f]pyrimido[4,5-d]azepin-2-amine] | 80 to 100% | 80 to 100% | 80 to 100% | 80 to 100% | 80 to 100% | 50 to 79% | 80 to 100% | 80 to 100%
Fc1ccc(CNc2ncc3c(n2)-c2cccnc2Nc2cnccc2-3)cc1 [Example 11, N-(4-fluorobenzyl)-9H-dipyrido[2,3-b:4′,3′-f]pyrimido[4,5-d]azepin-2-amine] | 80 to 100% | 80 to 100% | 80 to 100% | 80 to 100% | 80 to 100% | 80 to 100% | 80 to 100% | 80 to 100%
Clc1ccc(CNc2ncc3c(n2)-c2cccnc2Nc2cnccc2-3)cc1 [Example 13, N-(4-chlorobenzyl)-9H-dipyrido[2,3-b:4′,3′-f]pyrimido[4,5-d]azepin-2-amine] | < 50% | < 50% | < 50% | 50 to 79% | 80 to 100% | 50 to 79% | 50 to 79% | 50 to 79%
COc1ccc(CCNc2ncc3c(n2)-c2cccnc2Nc2cnccc2-3)cc1OC [Example 14, N-[2-(3,4-dimethoxyphenyl)ethyl]-9H-dipyrido[2,3-b:4′,3′-f]pyrimido[4,5-d]azepin-2-amine] | < 50% | < 50% | < 50% | < 50% | 80 to 100% | 80 to 100% | < 50% | < 50%
Cc1ccccc1CCNc1ncc2c(n1)-c1cccnc1Nc1cnccc1-2 [Example 15, N-[2-(2-methylphenyl)ethyl]-9H-dipyrido[2,3-b:4′,3′-f]pyrimido[4,5-d]azepin-2-amine] | < 50% | < 50% | < 50% | 50 to 79% | 80 to 100% | 80 to 100% | < 50% | < 50%
FC(F)(F)c1ccc(CNc2ncc3c(n2)-c2cccnc2Nc2cnccc2-3)cc1 [Example 21, N-[4-(trifluoromethyl)benzyl]-9H-dipyrido[2,3-b:4′,3′-f]pyrimido[4,5-d]azepin-2-amine] | 80 to 100% | 80 to 100% | 80 to 100% | 80 to 100% | < 50% | < 50% | 80 to 100% | 80 to 100%
COc1ccccc1CNc1ncc2c(n1)-c1cccnc1Nc1cnccc1-2 [Example 22, N-(2-methoxybenzyl)-9H-dipyrido[2,3-b:4′,3′-f]pyrimido[4,5-d]azepin-2-amine] | 80 to 100% | 50 to 79% | < 50% | < 50% | < 50% | < 50% | 50 to 79% | 50 to 79%
CCCN1CCC(Nc2ncc3c(n2)-c2cccnc2Nc2cnccc2-3)CC1 [Example 23, N-(1-propylpiperidin-4-yl)-9H-dipyrido[2,3-b:4′,3′-f]pyrimido[4,5-d]azepin-2-amine] | 80 to 100% | 80 to 100% | 80 to 100% | 80 to 100% | < 50% | 50 to 79% | 80 to 100% | 80 to 100%
COc1cccc(CCNc2ncc3c(n2)-c2cccnc2Nc2cnccc2-3)c1 [Example 24, N-[2-(3-methoxyphenyl)ethyl]-9H-dipyrido[2,3-b:4′,3′-f]pyrimido[4,5-d]azepin-2-amine] | < 50% | < 50% | < 50% | 50 to 79% | 80 to 100% | 80 to 100% | < 50% | < 50%
Fc1cccc(CCNc2ncc3c(n2)-c2cccnc2Nc2cnccc2-3)c1 [Example 25, N-[2-(3-fluorophenyl)ethyl]-9H-dipyrido[2,3-b:4′,3′-f]pyrimido[4,5-d]azepin-2-amine] | 80 to 100% | 80 to 100% | 80 to 100% | 80 to 100% | 80 to 100% | 50 to 79% | 80 to 100% | 80 to 100%
c1ccc(OCCNc2ncc3c(n2)-c2cccnc2Nc2cnccc2-3)cc1 [Example 26, N-(2-phenoxyethyl)-9H-dipyrido[2,3-b:4′,3′-f]pyrimido[4,5-d]azepin-2-amine] | < 50% | < 50% | < 50% | 50 to 79% | 80 to 100% | 80 to 100% | < 50% | < 50%
O[C@H]1CC[C@H](Nc2ncc3c(n2)-c2cccnc2Nc2cnccc2-3)CC1 [Example 27, trans-4-(9H-dipyrido[2,3-b:4′,3′-f]pyrimido[4,5-d]azepin-2-ylamino)cyclohexanol] | 50 to 79% | 50 to 79% | < 50% | 80 to 100% | 80 to 100% | 80 to 100% | < 50% | < 50%
Fc1ccc(CNc2ncc3c(n2)-c2cccnc2Nc2cnccc2-3)cc1F [Example 33, N-(3,4-difluorobenzyl)-9H-dipyrido[2,3-b:4′,3′-f]pyrimido[4,5-d]azepin-2-amine] | 80 to 100% | 80 to 100% | 80 to 100% | 80 to 100% | 80 to 100% | 80 to 100% | 80 to 100% | 80 to 100%
c1ccc(-c2ccc(CNc3ncc4c(n3)-c3cccnc3Nc3cnccc3-4)cc2)cc1 [Example 34, N-(biphenyl-4-ylmethyl)-9H-dipyrido[2,3-b:4′,3′-f]pyrimido[4,5-d]azepin-2-amine] | 80 to 100% | 80 to 100% | 80 to 100% | 80 to 100% | 80 to 100% | 80 to 100% | 80 to 100% | 80 to 100%
c1cnc2c(c1)-c1nc(NC3CCCCC3)ncc1-c1ccncc1N2 [Example 35, N-cyclohexyl-9H-dipyrido[2,3-b:4′,3′-f]pyrimido[4,5-d]azepin-2-amine] | < 50% | < 50% | < 50% | 50 to 79% | 80 to 100% | 80 to 100% | 50 to 79% | < 50%
